Data set [1] in a line: in vitro. In kind it is in vitro ADME. To be noted: bovine, pH 7.4. From the text:
The volume of serous middle ear fluid (MEF) that accumulates in non-infected chinchillas with Eustachian tube obstruction varies greatly. […] It became necessary to formulate an artificial middle ear fluid (AMEF) that mimics the MEF.

A short description of data set [2]: Non-specific binding to ultrafiltration device in PBS.
For data set [3] the following is noted: cited from earlier work.
Data set [4] is described as follows: in vitro.
Data set [5] in a line: External ear dosing of 3% moxigel after 10% or 50% IPM pretreatment, MEF microdialysis. To be noted: 3% moxigel 9 mg external ear, mean.

Read-outs that look alike come from different tables or passages of the source.

The term fraction unbound denotes free concentration divided by total concentration. Consider `COc1c(N2C[C@@H]3CCCN[C@@H]3C2)c(F)cc2c(=O)c(C(=O)O)cn(C3CC3)c12` [moxifloxacin], for which the fraction unbound at 220 μg/ml in the data set “in vitro [1]” (isolated protein) is 0.84 ± 0.063; in data set [2] it was 0.97 ± 0.026. The fraction unbound at 492 μg/ml is 0.92 ± 0.013 in “in vitro [1]” (isolated protein) and 0.75 ± 0.02 in “in vitro [4]”. Besides, the fraction unbound is 0.84 to 0.92 in “in vitro [1]” and ~1 in data set [2]. The elimination rate constant is, setting by setting: (high intrabulla dose (150 μg)) 0.0075 ± 0.0010 min⁻¹; (intrabulla dosing, mean of both doses) 0.0093 min⁻¹; (low intrabulla dose (50 μg)) 0.0102 ± 0.0040 min⁻¹. Besides, in data set [3] (human, in vivo, po, 400 mg), the “mean AUC” value is 2170 µg·min/mL. The “concentration observed in plasma” value in data set [3] (humans, oral dose of 400 mg, Owens & Ambrose 2002) was 2000 ng/mL. The “total (bound plus free) maximum concentration in plasma” value in data set [3] (humans, oral dose of 400 mg) is 3.1 µg/mL. The “Time to reach 10 μg/mL” value in data set [5] is given as 618 min.

(Values after US20120289541A1 (NOVARTIS AG, priority 2010, published 2012).)
